Measurements published in US20020006915A1, “Use of COX-2 inhibitors to treat sepsis, complications thereof, and EP receptor modulation” (priority 2000, published 2002).

Key:
[1] = tested on: LPS stimulated splenic macrophages; assay: Mediator production (PGE2, IL-6, TNF-α, NO) by stimulated splenic macrophages 7 days after injury, 3 in vivo doses of NS-398 within 24 h; design: species or system BALB/c mice
Procedure: Vehicle mice were injected with a 4% DMSO solution.
Spleens were collected aseptically and placed in separate petri dishes containing cold (4° C.) Hanks Balanced Salt Solution without calcium and magnesium (Gibco BRL, Life Technologies Inc, Grand Island, N.Y.). Splenocytes were isolated by gentle mechanical disruption of the spleen with filtration through a nylon mesh (Spectrum, Laguna Hills, Calif.). The suspension was centrifuged for 7 minutes, at 500 g and 4° C. After resuspension, erythrocytes were lysed with an ammonium chloride solution for 4 minutes and the lysate was centrifuged as previously described. The remaining pellet was resuspended in complete RPMI-1640 (Gibco BRL, Life Technologies Inc), containing 1% antibiotic/antimycotic solution and 10% heat-inactivated fetal bovine serum (Gibco BRL, Life Technologies Inc), counted and diluted to a final cell concentration of 5×10^6 cells/ml and plated. After allowing macrophages to adhere for 2 hours, the remaining cells were suctioned off and macrophages were incubated with 10 ng/ml LPS 055:B5 (Sigma, St. Louis, Mo.) for PGE2, IL-6 and TNFα determination, or (10 ng/ml LPS+100 U/ml recombinant mouse IFN-γ (Pharmingen, San Diego, Calif.) for NO2^− determination. Cells were incubated at 37° C. in a 5% CO2 atmosphere, and supernatants harvested at 24 hours and frozen at −70° C. for determination of prostaglandin, cytokine and NO production.
NO2^− was measured indirectly by determination of NO2^− concentration using the Greiss reagent system (Promega, Madison, Wis.). The BCA protein assay (Pierce, Rockford, Ill.) was used to quantify protein and all measurements were normalized to protein content per well.
Balb/c mice (n=8/group) were given 3 intraperitoneal injections of 10 mg/kg NS398; immediately following injury, at 12 and 24 hours after sham injury or trauma (femur fracture and 40% blood volume hemorrhage). Sham+placebo (C); sham+NS398 (CN); trauma+placebo (T); or trauma+NS398 (TN) groups were studied. On day 7 after injury, mice were sacrificed and splenic macrophages evaluated for cytokine production and expression of COX-2 mRNA. In a separate study, mice (n=10-12/group) were treated in an identical fashion. After 7 days, cecal ligation and puncture was performed and animals followed for survival.

plasma PGE2 = assay: Plasma PGE2 levels at 1 and 7 days after trauma; assay type: in vivo, BALB/c mice
Procedure: Plasma PGE2 levels were determined in separate experiments by sacrificing mice at 1 day and at 7 days after treatment with NS-398. There was an increase in PGE2 levels at 1 and 7 days after traumatic injury compared with uninjured controls.

[2] = Body weight and splenocyte counts 7 days after trauma (NS-398 twice a day over 7 days); assay type: in vivo, BALB/c mice; settings: for Body Wt.: day 7
Procedure: Animals, Experimental Protocol, NS-398 preparation were as described in Example I. Macrophages were prepared as described initially under “Macrophage Preparation ” in Example I. After lysis of erythrocytes with ammonium chloride solution and centrifugation as described in Example I, macrophages were further prepared by resuspending the pellet in RPMI-1640 (Gibco BRL, Life Technologies Inc) containing 2 mmol/L L-glutamine, 100 U/mL penicillin, 100 μg/mL streptomycin, 0.25 μg/mL amphotericin B, and 10% heat-inactivated fetal calf serum (Gibco BRL, Life Technologies Inc), counted via hemocytometer and diluted to a final concentration of 5×10^6 cells/mL, and plated in 96 well plates in a volume of 0.2 mL per well. After allowing macrophages to adhere for 2 hours, the remaining cells were suctioned off and the macrophages were cultured in the +/−1 ng LPS 055:B5 (Sigma, St. Louis, Mo.) per mL at 37° C. in 5% carbon dioxide incubators. Supernatants were harvested at 24 hours and stored at −70° C. until analysis for batch enzyme-linked immunosorbent assay processing to determine prostaglandin and cytokine production.
Body weight and splenocyte recovery after injury±NS-398 were recorded.
BALB/C mice (n=8/group) were given 10mg/kg NS398 intraperitoneally BID for 7 days, starting immediately after sham injury or trauma (femur fracture+40% hemorrhage). Four groups, sham+placebo (C); sham+NS398 (CN); trauma+placebo (T); or trauma+NS398 (TN) were studied. On day 7 after trauma, mice were sacrificed and splenic macrophages evaluated for PGE2, TNF-α and NO production (via Student's t-test). In a separate study, mice (n=10-11/group) were traumatized and given NS398 for 7 days. On day 7, cecal ligation and puncture was performed, and mice evaluated for survival over 3 weeks (via Log-rank test).

[3] = tested on: LPS stimulated human PBMC's; assay: PGE2, LTB4 and TNF-α production from LPS stimulated PBMC's co-incubated with NS-398; assay type: cell-based
Procedure: The study included 10 patients sustaining either long-bone fracture or ≧15% total body surface burn and 10 control subjects (protocol approved by the Weill Medical College of Cornell University Internal Research Board). Blood samples were obtained within 12 hours of fracture or burn injury. Immune compromised patients including those with cancer, collagen-vascular diseases, HIV or any recent history of steroid or NSAID drug use were excluded from this study. Each patient sample was run simultaneously with a control sample.
Peripheral venous blood samples were collected into two heparin-EDTA tubes and placed on ice. 6 mL of Histopaque (Sigma Chemical Co., St. Louis, Mo.) was layered into a conical 15 mL tube and 6 mL of undiluted whole blood was gently layered over the top. Tubes were then centrifuged at 1000 rpm for 30 minutes at room temperature. A sterile pasteur pipet was used to gently collect the layer of PBMC's which were then transferred to a new 15 mL tube. Samples were washed twice with 10 mL Ca^+2 and Mg^+2-free Hanks Buffered Salt Solution (Gibco BRL-Life Technologies, Grand Island, N.Y.) and centrifuged at 1100 rpm for 10 minutes. The supernatant was discarded and the pellet resuspended in complete RPMI-1640 (Gibco BRL-Life Technologies, Grand Island, N.Y.) with 10% heat inactivated fetal bovine serum (Gibco BRL-Life Technologies, Grand Island, N.Y.) and 1% antibiotic/antimycotic solution. Cells were then adjusted to a final concentration of 1×10^6 cells/mL and plated. Cells were incubated at 37° C. in a 5% CO2 atmosphere with supernatants harvested at 24 hours and frozen at −70° C. for determination of prostaglandin and cytokine production.
Serial dilutions were made to co-culture cells with a final concentration of […] NS-398 in a 0.1% DMSO. Control and trauma groups were co-cultured with 0.1% DMSO vehicle for comparisons with NS-398 treated groups.

[4] = T + NS, 3 i.p. injections of 10 mg/kg, splenic macrophages day 7

**Q.** Which results are given for `CS(=O)(=O)Nc1ccc([N+](=O)[O-])cc1OC1CCCCC1` [NS-398, N-(2-cyclohexyloxy-4-nitrophenyl)methanesulfonamide]?
**A.** IL-6 [1, 4]: 5.4 ± 0.9 pg/μg protein; NO [1, 4]: 8 ± 4 nmol/μgprot; TNF-α [1, 4]: 2.0 ± 0.5; PGE2 ([1]; T + NS, 3 i.p. injections of 10 mg/kg, splenic macrophages day 7, n=8): 71 ± 14; PGE2 production from LPS stimulated splenic macrophages ([1]; control mice treated with NS-398 (CN), 7 days): 87 ± 10 pg/µg protein; IL-6 level, splenic macrophages ([1]; injured mice + NS-398, 7 days): 5.4 ± 0.3 pg/µg; nitrite levels, LPS+IFN-γ stimulated splenic macrophages ([1]; injured mice + NS-398, 7 days): 0.007 ± 0.004 nmol/µg; TNF-α production, splenic macrophages ([1]; trauma + NS-398 (TN), 7 days following trauma): 2.0 ± 0.2 pg/µL; PGE2 production from LPS stimulated splenic macrophages ([1]; trauma+NS-398 mice, 7 days following injury, treatment for 24 hours post-injury, ±SEM): 71 ± 5 pg/µg; Plasma PGE2 Day 1 (plasma PGE2; Control + NS-398): 24,652 pg/ml; Plasma PGE2 Day 7 (plasma PGE2; Control + NS-398): 7,244 pg/ml; Plasma PGE2 Day 1 (plasma PGE2; Trauma + NS-398): 26,370 pg/ml; Plasma PGE2 Day 7 (plasma PGE2; Trauma + NS-398): 4,354 pg/ml; Plasma PGE2 levels (in words) (plasma PGE2; control and injured mice, 1 and 7 days): attenuated in both control and injured mice; Body Wt. ([2]; Control + NS-398, twice a day over 7 days): 18.3 ± 0.3 g; Body Wt. ([2]; Trauma + NS-398, twice a day over 7 days): 16.7 ± 0.7 g; difference in body weight ([2]; control versus trauma+NS-398 mice, 7 days after trauma): no significant difference; TNF-α production ([3]; PBMC's after injury, co-culture with NS-398, P<0.05): significantly decreased production; PGE2 production ([3]; PBMC's of injured patients, co-culture with 10μM NS-398, T vs TN P<0.001): significantly reduced the production of PGE2; LTB4 production ([3]; control cells, co-culture with NS-398, P<0.05): significant increase in the production of LTB4; LTB4 production ([3]; trauma cells, co-culture with NS-398, P<0.004): significant increase in the production of LTB4
